Laboratory results reported in US20050115197A1, “Antimicrobial barrier coatings and methods of use” (priority 2003, published 2005).

Tested on: Aspergillus niger (ATCC 6275) and Penicillium pinophilum (ATCC 9644) mixture (interior films); Aureobasidium pullulans (ATCC 9348) (exterior films)
Test: dry-film mildew resistance test of sealer/barrier compositions on coated filter paper on malt agar
Type: cell-based
Details: level of fungicide in the sealer/barrier composition; up to 14 days incubation
Method: The above sealer/barrier compositions were tested to determine the performance of dry-films as protective sealers in preventing the development of mildew during testing on porous cellulosic substrates. Several test samples of the composition were prepared with levels of fungicide ranging from 250 ppm to 3000 ppm. In addition, a composition was prepared without fungicide for use as a control.
Individual samples of the sealer/barrier composition were weighed out. Fungicide was added to the samples of the sealer/barrier coating compositions in a ladder series of levels (e.g., 250, 500, 750 1000 ppm, etc.) and thoroughly mixed. The test porous cellulosic substrates consisting of Whatman No. 30 filter paper were first brush coated each with two (2) coats of test composition, and allowed to dry in a protected location. Duplicate two inch squares were then cut from the coated filter paper specimens and placed on the surface on malt agar petri plates.
Test inoculums consisting of aqueous spore suspensions at a concentrations of ˜10^5 spores were prepared in sterile water. Those films (compositions) which were intended for use in interior application were inoculated with a mixture of Aspergillus niger (ATCC 6275) and Penicillium pinophilum (ATCC 9644). Films intended for exterior application were inoculated with Aureobasidium pullulans (ATCC 9348). […]

Structure (SMILES): c1ccc2[nH]c(-c3cscn3)nc2c1 [biocide, 2-(4-thiazoyl)benzimidazole]
- biocide level capable of preventing mold development on the substrate: ≤ 250 ppm
